Assay results reported in patent US9695155B2, “Herbicidal substituted pyrimidinyloxy benzene compounds” (E. I. DU PONT DE NEMOURS AND COMPANY, priority 2013, dated 2017).

Experiments:
barnyardgrass [1] = assay: Test A preemergence; assay type: in vivo, Echinochloa crus-galli; settings: for Plant response rating, Barnyardgrass: 125 g ai/ha, 0 to 100 scale where 0 is no effect and 100 is complete control; for Barnyardgrass plant response rating: 500 g ai/ha, 0 to 100 scale, 0 no effect, 100 complete control, approx. 10 days
Procedure, shortened: (§1)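 Injury scores run from 0, no effect, to 100, complete control, judged by eye against untreated plants roughly 10 days after treatment. Chemicals carried a surfactant in a non-phytotoxic solvent and went onto loam–sand soil preemergence or onto one- to two-leaf seedlings postemergence.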

large (Lg) crabgrass [2] = assay: Test A preemergence; assay type: in vivo, Digitaria sanguinalis; settings: for Plant response rating, Crabgrass, Large: 125 g ai/ha, 0 to 100 scale where 0 is no effect and 100 is complete control; for Crabgrass, Large plant response rating: 500 g ai/ha, 0 to 100 scale, 0 no effect, 100 complete control, approx. 10 days
Procedure, shortened: as §1

giant foxtail [3] = assay: Test A preemergence; assay type: in vivo, Setaria faberii; settings: for Plant response rating, Foxtail, Giant: 125 g ai/ha, 0 to 100 scale where 0 is no effect and 100 is complete control; for Foxtail, Giant plant response rating: 500 g ai/ha, 0 to 100 scale, 0 no effect, 100 complete control, approx. 10 days
Procedure, shortened: as §1

morningglory [4] = assay: Test A preemergence; assay type: in vivo, Ipomoea spp.; settings: for Plant response rating, Morningglory: 125 g ai/ha, 0 to 100 scale where 0 is no effect and 100 is complete control; for Morningglory plant response rating: 500 g ai/ha, 0 to 100 scale, 0 no effect, 100 complete control, approx. 10 days
Procedure, shortened: as §1

pigweed [5] = assay: Test A preemergence; assay type: in vivo, Amaranthus retroflexus; settings: for Plant response rating, Pigweed: 125 g ai/ha, 0 to 100 scale where 0 is no effect and 100 is complete control; for Pigweed plant response rating: 500 g ai/ha, 0 to 100 scale, 0 no effect, 100 complete control, approx. 10 days
Procedure, shortened: as §1

velvetleaf [6] = assay: Test A preemergence; assay type: in vivo, Abutilon theophrasti; settings: for Plant response rating, Velvetleaf: 125 g ai/ha, 0 to 100 scale where 0 is no effect and 100 is complete control; for Velvetleaf plant response rating: 500 g ai/ha, 0 to 100 scale, 0 no effect, 100 complete control, approx. 10 days
Procedure, shortened: as §1

wheat [7] = assay: Test A preemergence; assay type: in vivo, Triticum aestivum; settings: for Plant response rating, Wheat: 125 g ai/ha, 0 to 100 scale where 0 is no effect and 100 is complete control; for Wheat plant response rating: 500 g ai/ha, 0 to 100 scale, 0 no effect, 100 complete control, approx. 10 days
Procedure, shortened: as §1

corn [8] = assay: Test A preemergence; assay type: in vivo, Zea mays; settings: for Plant response rating, Corn: 125 g ai/ha, 0 to 100 scale where 0 is no effect and 100 is complete control; for Corn plant response rating: 500 g ai/ha, 0 to 100 scale, 0 no effect, 100 complete control, approx. 10 days
Procedure, shortened: as §1

barnyardgrass [9] = assay: Test A postemergence; assay type: in vivo, Echinochloa crus-galli
Procedure, shortened: as §1

large (Lg) crabgrass [10] = assay: Test A postemergence; assay type: in vivo, Digitaria sanguinalis
Procedure, shortened: as §1

giant foxtail [11] = assay: Test A postemergence; assay type: in vivo, Setaria faberii
Procedure, shortened: as §1

morningglory [12] = assay: Test A postemergence; assay type: in vivo, Ipomoea spp.
Procedure, shortened: as §1

pigweed [13] = assay: Test A postemergence; assay type: in vivo, Amaranthus retroflexus
Procedure, shortened: as §1

velvetleaf [14] = assay: Test A postemergence; assay type: in vivo, Abutilon theophrasti
Procedure, shortened: as §1

wheat [15] = assay: Test A postemergence; assay type: in vivo, Triticum aestivum
Procedure, shortened: as §1

corn [16] = assay: Test A postemergence; assay type: in vivo, Zea mays
Procedure, shortened: as §1

rice = assay: Test B flooded paddy test; assay type: in vivo, Oryza sativa; settings: Flood, 250 g ai/ha; 0 to 100 scale where 0 is no effect and 100 is complete control
Procedure, shortened: (§2)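 Evaluation is visual, against untreated controls, 13 to 15 days after treatment. Before treatment, plants reached the 2-leaf stage; pots were then flooded 3 cm deep, compound was added to the water, and that level was maintained. Ratings run 0 to 100, with 100 meaning complete control.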

sedge, umbrella = assay: Test B flooded paddy test; assay type: in vivo, Cyperus difformis; settings: Flood, 250 g ai/ha; 0 to 100 scale where 0 is no effect and 100 is complete control
Procedure, shortened: as §2

Heteranthera limosa = assay: Test B flooded paddy test; assay type: in vivo; settings: Flood, 250 g ai/ha; 0 to 100 scale where 0 is no effect and 100 is complete control
Procedure, shortened: as §2

barnyardgrass [17] = assay: Test B flooded paddy test; assay type: in vivo, Echinochloa crus-galli; settings: Flood, 250 g ai/ha; 0 to 100 scale where 0 is no effect and 100 is complete control
Procedure, shortened: as §2

[18] = 125 g ai/ha, 0 to 100 scale where 0 is no effect and 100 is complete control
[19] = 500 g ai/ha, 0 to 100 scale, 0 no effect, 100 complete control

Clc1cnc(Oc2cc(Cl)ccc2-n2cccn2)nc1 [Compound 49]
10: Foxtail, Giant plant response rating (giant foxtail [3]) | Plant response rating, Barnyardgrass (barnyardgrass [9]; [19]) | Plant response rating, Crabgrass, Large (large (Lg) crabgrass [10]; [19]) | Plant response rating, Foxtail, Giant (giant foxtail [11]; [19]) | Plant response rating, Velvetleaf (velvetleaf [14]; [18])
20: Crabgrass, Large plant response rating (large (Lg) crabgrass [2]) | Velvetleaf plant response rating (velvetleaf [6]) | Plant response rating, Morningglory (morningglory [12]; [19])
40: Plant response rating, Pigweed (pigweed [13]; [19])
0: Plant response rating, Barnyardgrass (barnyardgrass [1]) | Barnyardgrass plant response rating (barnyardgrass [1]) | Plant response rating, Crabgrass, Large (large (Lg) crabgrass [2]) | Plant response rating, Foxtail, Giant (giant foxtail [3]) | Plant response rating, Morningglory (morningglory [4]) | Morningglory plant response rating (morningglory [4]) | Plant response rating, Pigweed (pigweed [5]) | Pigweed plant response rating (pigweed [5]) | Plant response rating, Velvetleaf (velvetleaf [6]) | Plant response rating, Wheat (wheat [7]) | Wheat plant response rating (wheat [7]) | Plant response rating, Corn (corn [8]) | Corn plant response rating (corn [8]) | Plant response rating, Barnyardgrass (barnyardgrass [9]; [18]) | Plant response rating, Crabgrass, Large (large (Lg) crabgrass [10]; [18]) | Plant response rating, Foxtail, Giant (giant foxtail [11]; [18]) | Plant response rating, Morningglory (morningglory [12]; [18]) | Plant response rating, Pigweed (pigweed [13]; [18]) | Plant response rating, Wheat (wheat [15]; [18]) | Plant response rating, Wheat (wheat [15]; [19]) | Plant response rating, Corn (corn [16]; [18]) | Plant response rating, Corn (corn [16]; [19]) | Plant response rating, Rice (rice) | Plant response rating, Sedge, Umbrella (sedge, umbrella) | Plant response rating, Ducksalad (Heteranthera limosa) | Plant response rating, Barnyardgrass (barnyardgrass [17])
30: Plant response rating, Velvetleaf (velvetleaf [14]; [19])

FC(F)(F)c1ccc(Oc2ncc(Cl)cn2)c(-n2cc(Br)cn2)c1 [Compound 48]
20: Plant response rating, Crabgrass, Large (large (Lg) crabgrass [10]; [19]) | Plant response rating, Foxtail, Giant (giant foxtail [11]; [19]) | Plant response rating, Morningglory (morningglory [12]; [18]) | Plant response rating, Pigweed (pigweed [13]; [18])
30: Plant response rating, Morningglory (morningglory [12]; [19])
0: Plant response rating, Barnyardgrass (barnyardgrass [1]) | Barnyardgrass plant response rating (barnyardgrass [1]) | Plant response rating, Morningglory (morningglory [4]) | Morningglory plant response rating (morningglory [4]) | Plant response rating, Pigweed (pigweed [5]) | Pigweed plant response rating (pigweed [5]) | Plant response rating, Velvetleaf (velvetleaf [6]) | Velvetleaf plant response rating (velvetleaf [6]) | Plant response rating, Wheat (wheat [7]) | Wheat plant response rating (wheat [7]) | Plant response rating, Corn (corn [8]) | Corn plant response rating (corn [8]) | Plant response rating, Barnyardgrass (barnyardgrass [9]; [18]) | Plant response rating, Foxtail, Giant (giant foxtail [11]; [18]) | Plant response rating, Velvetleaf (velvetleaf [14]; [18]) | Plant response rating, Wheat (wheat [15]; [18]) | Plant response rating, Wheat (wheat [15]; [19]) | Plant response rating, Corn (corn [16]; [18]) | Plant response rating, Corn (corn [16]; [19]) | Plant response rating, Rice (rice) | Plant response rating, Sedge, Umbrella (sedge, umbrella) | Plant response rating, Ducksalad (Heteranthera limosa) | Plant response rating, Barnyardgrass (barnyardgrass [17])
10: Plant response rating, Foxtail, Giant (giant foxtail [3]) | Plant response rating, Barnyardgrass (barnyardgrass [9]; [19]) | Plant response rating, Crabgrass, Large (large (Lg) crabgrass [10]; [18]) | Plant response rating, Velvetleaf (velvetleaf [14]; [19])
80: Crabgrass, Large plant response rating (large (Lg) crabgrass [2])
50: Plant response rating, Crabgrass, Large (large (Lg) crabgrass [2]) | Foxtail, Giant plant response rating (giant foxtail [3]) | Plant response rating, Pigweed (pigweed [13]; [19])
